For ten molecules, EC50 results are on record in patent US12441722B2, “Therapeutic agents and methods of treatment” (University of Florida Research Foundation, Incorporated, priority 2020, dated 2025).

For the first assay, the system named is MOLT-4. The assay can be described thus: Cell viability assay (tetrazolium-based MTS) in MOLT4 cells. The settings on record: Homo sapiens, MOLT-4, MOLT4 acute lymphoblastic leukemia cells, 48 h incubation. As for the experimental part:
Cancer cells from acute lymphoblastic leukemia (MOLT4) were incubated with increasing concentrations of compounds of Examples 1-9 for 48 h. Cell viability was measured by tetrazolium-based MTS assay. 5×10^4 to 1×10^5 suspension cells or 3×10^3 to 5×10^3 adherent cells were seeded and treated in 96-well plates for 48 h. The EC50 values of individual agents were calculated with GraphPad Prism.
Broadly, the EC50 is the concentration giving half of the maximal effect. A low value points to an effect from little substance. In turn, `Cc1ncsc1-c1ccc([C@H](C)NC(=O)[C@@H]2C[C@@H](O)CN2C(=O)[C@@H](NC(=O)CCCCCCCNC(=O)c2nc(N3CCc4cccc(C(=O)Nc5nc6ccccc6s5)c4C3)ccc2-c2cnn(CC34CC5CC(CC(C5)C3)C4)c2C)C(C)(C)C)cc1` [degrader #19, 2-(5-(1-(adamantan-1-ylmethyl)-5-methyl-1H-pyrazol-4-yl)-6-((8-(((S)-1-((2S,4R)-4-hydroxy-2-(((S)-1-(4-(4-methylthiazol-5-yl)phenyl)ethyl)carbamoyl)pyrrolidin-1-yl)-3,3-dimethyl-1-oxobutan-2-yl)amino)-8-oxooctyl)carbamoyl)pyridin-2-yl)-N-(benzo[d]thiazol-2-yl)-1,2,3,4-tetrahydroisoquinoline-8-carboxamide] gave a half-maximal effective concentration (EC50) of 10 to 100 nM.
The same measure, in the same setting: under `Cc1ncsc1-c1ccc([C@H](CC(=O)NCCCCCNC(=O)c2nc(N3CCc4cccc(C(=O)Nc5nc6ccccc6s5)c4C3)ccc2-c2cnn(CC34CC5CC(CC(C5)C3)C4)c2C)NC(=O)[C@@H]2C[C@@H](O)CN2C(=O)[C@@H](NC(=O)C2(C#N)CC2)C(C)(C)C)cc1` [degrader #23, 2-(5-(1-(adamantan-1-ylmethyl)-5-methyl-1H-pyrazol-4-yl)-6-((5-((S)-3-((2S,4R)-1-((S)-2-(1-cyanocyclopropane-1-carboxamido)-3,3-dimethylbutanoyl)-4-hydroxypyrrolidine-2-carboxamido)-3-(4-(4-methylthiazol-5-yl)phenyl)propanamido)pentyl)carbamoyl)pyridin-2-yl)-N-(benzo[d]thiazol-2-yl)-1,2,3,4-tetrahydroisoquinoline-8-carboxamide] stands 10 to 100 nM.

Still in this assay, the particulars now being: MOLT4 acute lymphoblastic leukemia cells, 48 h incubation.
For the molecule `Cc1c(-c2ccc(N3CCc4cccc(C(=O)Nc5nc6ccccc6s5)c4C3)nc2C(=O)NCCOCCOCCOCC#Cc2ccc3c(c2)CN(C2CCC(=O)NC2=O)C3=O)cnn1CC12CC3CC(CC(C3)C1)C2` (stereo not shown) [degrader #29, 2-(5-(1-(adamantan-1-ylmethyl)-5-methyl-1H-pyrazol-4-yl)-6-((2-(2-(2-((3-(2-(2,6-dioxopiperidin-3-yl)-1-oxoisoindolin-5-yl)prop-2-yn-1-yl)oxy)ethoxy)ethoxy)ethyl)carbamoyl)pyridin-2-yl)-N-(benzo[d]thiazol-2-yl)-1,2,3,4-tetrahydroisoguinoline-8-carboxamide], the 50% effective concentration (EC50) is less than 10 nM.
In turn, `Cc1ncsc1-c1ccc([C@H](C)NC(=O)[C@@H]2C[C@@H](O)CN2C(=O)[C@@H](NC(=O)CCCCCCS(=O)(=O)NC(=O)c2nc(N3CCc4cccc(C(=O)Nc5nc6ccccc6s5)c4C3)ccc2-c2cnn(CC34CC5CC(CC(C5)C3)C4)c2C)C(C)(C)C)cc1` [degrader #12, 2-(5-(1-(adamantan-1-ylmethyl)-5-methvl-1H-pyrazol-4-yl)-6-(((7-(((S)-1-((2S,4R)-4-hydroxy-2-(((S)-1-(4-(4-methylthiazol-5-yl)phenyl)ethyl)carbamoyl)pyrrolidin-1-yl)-3,3-dimethyl-1-oxobutan-2-yl)amino)-7-oxoheptyl)sulfonyl)carbamol)pyridin-2-yl)-N-(benzo[d]thiazol-2-yl)-1,2,3,4-tetrahydroisoquinoline-8-carboxamide] displayed an EC50 of less than 10 nM.
Turning to `Cc1ncsc1-c1ccc([C@H](CC(=O)NCCCCCCNC(=O)c2nc(N3CCc4cccc(C(=O)Nc5nc6ccccc6s5)c4C3)ccc2-c2cnn(CC34CC5CC(CC(C5)C3)C4)c2C)NC(=O)[C@@H]2C[C@@H](O)CN2C(=O)[C@@H](NC(=O)C2(C#N)CC2)C(C)(C)C)cc1` [degrader #24, 2-(5-(1-(adamantan-1-ylmethyl)-5-methyl-1H-pyrazol-4-yl)-6-((6-((S)-3-((2S,4R)-1-((S)-2-(1-cyanocyclopropane-1-carboxamido)-3,3-dimethylbutanoyl)-4-hydroxypyrrolidine-2-carboxamido)-3-(4-(4-methylthiazol-5-yl)phenyl)propanamido)hexyl)carbamoyl)pyridin-2-yl)-N-(benzo[d]thiazol-2l)-1,2,3,4-tetrahydroisoquinoline-8-carboxamide], the EC50 lay within 100 to 1000 nM.
`Cc1c(-c2ccc(N3CCc4cccc(C(=O)Nc5nc6ccccc6s5)c4C3)nc2C(=O)NCCOCCOCCOCCCc2cccc3c2CN(C2CCC(=O)NC2=O)C3=O)cnn1CC12CC3CC(CC(C3)C1)C2` (stereo not shown) [degrader #32] showed an EC50 of less than 10 nM.
For the molecule `Cc1c(-c2ccc(N3CCc4cccc(C(=O)Nc5nc6ccccc6s5)c4C3)nc2C(=O)O)cnn1CC12CC3CC(C1)CC(C(=O)NCCCCCCCCCCCCNc1cccc4c1C(=O)N(C1CCC(=O)NC1=O)C4=O)(C3)C2` (stereo not shown) [degrader #38, 6-(8-(benzo[d]thiazol-2-ylcarbamoyl)-3,4-dihydroisoquinolin-2(1H)-yl)-3-(1-(((1r,3r)-3-((12-((2-(2,6-dioxopiperidin-3-yl)-1,3-dioxoisoindolin-4-yl)amino)dodecyl)carbamoyl)adamantan-1-yl)methyl)-5-methyl-1H-pyrazol-4-yl)picolinic acid], the EC50 fell in the range of 10 to 100 nM.
Take `Cc1c(-c2ccc(N3CCc4cccc(C(=O)Nc5nc6ccccc6s5)c4C3)nc2C(=O)NCCOCCOCCOCCCc2cccc3c2C(=O)N(C2CCC(=O)NC2=O)C3=O)cnn1CC12CC3CC(CC(C3)C1)C2` (stereo not shown) [degrader #30, 2-(5-(1-(adamantan-1-ylmethyl)-5-methyl-1H-pyrazol-4-yl)-6-((2-(2-(2-(3-(2-(2,6-dioxopiperidin-3-yl)-1,3-dioxoisoindolin-4-yl)propoxy)ethoxy)ethoxy)ethyl)carbamoyl)pyridin-2-yl)-N-(benzo[d]thiazol-2-yl)-1,2,3,4-tetrahydroisociuinoline-8-carboxamide]: the EC50 was less than 10 nM.
As to `Cc1c(-c2ccc(N3CCc4cccc(C(=O)Nc5nc6ccccc6s5)c4C3)nc2C(=O)O)cnn1CC12CC3CC(C1)CC(C(=O)NCCOCCNc1cccc4c1C(=O)N(C1CCC(=O)NC1=O)C4=O)(C3)C2` (stereo not shown) [degrader #39, 6-(8-(benzo[d]thiazol-2-ylcarbamoyl)-3,4-dihydroisoquinolin-2(1H)-yl)-3-(1-(((1r,3r)-3-((2-(2-((2-(2,6-dioxopiperidin-3-yl)-1,3-dioxoisoindolin-4-yl)amino)ethoxy)ethyl)carbamoyl)adamantan-1-yl)methyl)-5-methyl-1H-pyrazol-4-yl)picolinic acid], the EC50 was in the range of 10 to 100 nM.
Same read-out and setting: under `Cc1c(-c2ccc(N3CCc4cccc(C(=O)Nc5nc6ccccc6s5)c4C3)nc2C(=O)NCCOCCOCCOCCCc2ccc3c(c2)CN(C2CCC(=O)NC2=O)C3=O)cnn1CC12CC3CC(CC(C3)C1)C2` (stereo not shown) [degrader #33, 2-(5-(1-(adamantan-1-ylmethyl)-5-methyl-1H-pyrazol-4-yl)-6-((2-(2-(2-(3-(2-(2,6-dioxopiperidin-3-yl)-1-oxoisoindolin-5-yl)propoxy)ethoxy)ethoxy)ethyl)carbamoyl)pyridin-2-yl)-N-(benzo[d]thiazol-2-yl) 1,2,3,4-tetrahydroisociuinoline-8-carboxamide] stands less than 10 nM.
